Drawing on a melting point compilation (Tetko et al.; mined from patent text by program, amines drawn as free bases though some values may be those of a salt), this text covers melting point for 89 compounds.

Molecules are shown by their SMILES.

`CC(C)(C)c1cc2oc(-c3ccc(S(N)(=O)=O)cc3)c(-c3ccc(F)cc3)n2n1`: the melting point was 196 to 200 °C.

On to `CCOC(=O)COc1ccc(C=CC(=O)O)cc1`, for which the melting point was 154 °C.

In the case of `ONc1cccc(OCc2nc3ccccc3s2)c1`, the melting point is 112 to 114 °C.

`CN1CCN(c2c(Cl)cc3c(=O)c(C(=O)O)cn(C4CC4)c3c2Cl)CC1` registered a melting point above 300 °C.

`COc1cc(OC)nc(C2(OC)OC(=O)c3c(Cl)cccc32)n1` (centres undefined) yielded a melting point of 180 to 183 °C.

Regarding `O=[N+]([O-])c1ccccc1Cc1n[nH]c(Cl)n1`, the melting point is 160 to 163 °C.

Compound `CC(C)(C)OC(=O)Nc1ccc(C#Cc2ccccc2)cc1NC(=O)CC(=O)c1cccc([N+](=O)[O-])c1` returned a melting point of 177 to 179 °C.

`CCOC(=O)c1csc2cc(O)ccc12` gave a melting point of 128 to 129 °C.

Take `Cc1ccc(-n2c(-c3ccc(CC(=O)O)cc3)ccc2-c2ccc(CC(=O)O)cc2)cc1`: the melting point fell in the range of 193 to 195 °C.

Compound `CCOC(=O)c1cc(CC)sc1Nc1ccccc1[N+](=O)[O-]` yielded a melting point of 66 to 68 °C.

`COc1ccc(C(O)CNCCN)cc1` (centres undefined) displayed a melting point of 68 °C.

In the case of `CCOCC(=O)N1Cc2cc(Cl)ccc2CC(C)C1=O` (centres undefined), the melting point lay in the range of 123 to 124 °C.

Compound `O=c1nc(-c2ccc(-c3ccccc3)cc2)sc2ccccc12` gave a melting point of 170 to 171 °C.

`O=C(O)CCCc1ccc(-c2ccc(F)cc2F)cc1` yielded a melting point of 76 to 77 °C.

`O=C1NCc2cccnc2N1c1ccccc1` displayed a melting point of 269 to 271 °C.

`c1ccc2c(CCN=c3sc4ccccc4s3)c[nH]c2c1` registered a melting point of 149 to 150 °C.

Regarding `CC(CO)n1cnc2cnc3ccccc3c21` (centres undefined), the melting point was in the range of 170 to 174 °C.

On to `Cc1ccc(-c2ccc3c(c2)C=C(C(=O)Nc2ccc(CS(=O)Cc4ccccc4)cc2)CCO3)cc1` (centres undefined), for which the melting point lay within 208 to 209 °C.

Take `CSC(=NCCSCc1csc(NC(=N)N)n1)NC#N`: the melting point fell in the range of 127 to 134 °C.

For `CC(C)(C)OC(=O)NCCc1ccc(OCCC2Oc3cc([N+](=O)[O-])ccc3N(Cc3cccc(Cl)c3)C2=O)cc1` (centres undefined), the melting point was in the range of 82 to 85 °C.

Compound `O=C(c1ccccc1)c1ccc(Nc2ccccc2NC(=O)C(F)(F)F)cc1` had a melting point of 187 to 191 °C.

The compound `CC(C#N)(Cn1ncc2cc([N+](=O)[O-])ccc21)NC(=O)c1ccc(OC(F)(F)F)cc1` (centres undefined) came in with a melting point of 203 to 205 °C.

Regarding `Cc1oc(-c2ccc(C(F)(F)F)cc2)nc1COc1cccc(C#CC(C)n2oc(=O)[nH]c2=O)c1` (centres undefined), the melting point is 84 to 86 °C.

`CCOC(=O)C(NC(=O)OC(C)(C)C)c1csc(N)n1` (centres undefined) showed a melting point of 143 to 144 °C.

As to `CC(N)CN(C)C(=O)c1ccccc1` (centres undefined), the melting point was found to be 102 °C.

In turn, `CNS(=O)(=O)c1ccc(N2CCN(c3ccncc3)CC2)cc1` registered a melting point of 204 to 206 °C.

Consider `NC(=O)CCCN(Cc1ccc(Cl)cc1)Cc1ccc(Cl)cc1`, for which the melting point is 66 to 76 °C.

The compound `COc1cc(N)c(Cl)cc1C(=O)Nc1cc(OC)c(C(=O)N[C@H]2CCN(CCCOc3ccc(F)cc3)C[C@H]2OC)cc1Cl` (relative stereo) yielded a melting point of 182 °C.

As for `O=c1[nH]c2cc(Cl)c(Cl)cc2n1[C@@H]1C[C@H](CO)[C@@H](O)[C@H]1O`, the melting point is 219 to 220 °C.

Compound `Cc1cccc2c(=O)[nH]c(CC3CN4CCC3CC4)nc12` (centres undefined) yielded a melting point of 187 to 188 °C.

`CC(C)n1c(=O)n(C(N)=O)c2ccccc21` returned a melting point of 195 to 196 °C.

As to `CC(C)(C)OC(=O)c1sc(Nc2ccccc2)c2c1CCc1cnoc1-2`, the melting point was in the range of 148 to 149 °C.

The compound `C#CCNc1nc2ccc(OC(F)(F)F)cc2s1` had a melting point of 138 to 140 °C.

`COc1ccc2c(c1)c(CC1=CC(=O)N=N1)c(C)n2C(=O)c1ccc(Cl)cc1` had a melting point above 230 °C.

`CCCCNS(=O)(=O)c1ccc(N2CCC(NC[C@H](O)COc3cccc4[nH]c5ccccc5c34)CC2)cc1` registered a melting point of 166 to 179 °C.

Compound `COCCOC(=O)C1=C(C)Nc2nccn2C1c1ccccc1C(F)(F)F` (centres undefined) returned a melting point of 181 to 182 °C.

`CCOC(=O)C1C=Nc2c(ccc3cc(C(=O)N(C)Cc4ccc(F)cc4)cnc23)C1=O` (centres undefined) had a melting point of 206 to 207 °C.

As to `O=c1[nH]c(=Cc2ccc3ccccc3n2)c(=O)[nH]c1=Cc1ccc(F)cc1`, the melting point lay in the range of 319 to 320 °C.

For `O=CN(O)C(CO)CS(=O)(=O)c1ccccc1Sc1ccc(Cl)cc1` (centres undefined), the melting point lay in the range of 148 to 150 °C.

`Cc1cc2c(cc1[N+](=O)[O-])OCO2` displayed a melting point of 83 to 84 °C.

As to `COC(=O)/C(=C/C=C/c1cc2ccccc2o1)OC`, the melting point worked out at 108 °C.

Take `CCC(CC)c1ccc(Cl)c2nc3n(c12)CCCCN3c1ccc(S(C)=O)cc1C` (centres undefined): the melting point fell in the range of 189 to 190 °C.

Consider `CCOP(=O)(CCc1ccnc(-c2nc(=O)c3ccc(Cl)cc3s2)c1)OCC`, for which the melting point was in the range of 138 to 139 °C.

As to `O=C(Nc1ccc(C(F)(F)F)cn1)Oc1ccccc1`, the melting point was determined as 203 °C.

Turning to `Oc1cccc([C@H]2CCCC[C@@H]2NCCc2ccccc2)c1` (racemic), the melting point was 164 to 165 °C.

`O=C(CCl)Nc1ccc2c(c1NC(=O)C1CCCCC1)C(=O)c1ccccc1C2=O` came in with a melting point of 216 to 217 °C.

Compound `CC(C)(C)c1cc(C(=O)c2cccs2)cc(CN(C2CCCCC2)C2CCCCC2)c1O` registered a melting point of 161 to 162 °C.

With `NS(=O)(=O)c1ccc(CCN2C(=O)c3ccccc3C2(O)c2ccccc2)cc1` (centres undefined), the melting point worked out at 225 °C.

As to `CC(C)=CCOc1ccc2c(=O)c(C)c(-c3ccccc3)oc2c1C(=O)C=Cc1ccccc1`, the melting point fell in the range of 83 to 84 °C.

`CC(C)C(=O)Nc1cn(-c2cncc(F)c2)nc1C=O` displayed a melting point of 140 to 142 °C.

`CC(=O)c1c(O)c(=O)[nH]c2cc(Cl)ccc2c1=O`: the melting point is 254 to 256 °C.

Regarding `CN(c1nc2cc(NC(=O)OC(C)(C)C)ccn2n1)C1CC1`, the melting point came to 323 °C.

Turning to `Nc1ccc(C=Cc2nc3ccccc3nc2C=Cc2ccc(N)cc2)cc1`, the melting point lay within 227 to 228 °C.

Regarding `OC1CCCc2nc3ccccc3c(NCCCOc3ccccc3)c21` (centres undefined), the melting point lay in the range of 138 to 140 °C.

Take `COC(=O)[C@H](Cc1cc(I)c(OCCCBr)c(I)c1)NC(=O)OC(C)(C)C`: the melting point lay in the range of 102 to 103 °C.

Turning to `CC(C)(C)OC(=O)N1CCOc2ccccc21`, the melting point was 78 to 79 °C.

`N#Cc1ncccc1-c1nc2cccnc2o1` displayed a melting point of 129 to 133 °C.

For `CC1=C(C(=O)CS(=O)(=O)NC(C)C)C(c2cccc([N+](=O)[O-])c2)C(C(=O)OC(C)C)=C(C)N1C` (centres undefined), the melting point fell in the range of 67 to 69 °C.

The compound `O=C1NC(=O)C2(N1)C(=O)N(Cc1ccc(Br)cc1F)c1c(C(F)(F)F)cccc12` (centres undefined) yielded a melting point of 197 to 199 °C.

As for `N=C(c1cc(Cl)ccc1N)C1CCCCC1`, the melting point stood at 65 °C.

`COc1cc(C(=O)NS(=O)(=O)c2ccccc2)ccc1Cc1nn(C)c2ccc(NC(=O)OC3CCCC3)cc12` came in with a melting point of 145 °C.

`N#Cc1cnc2ccsc2c1NCc1ccc(Cl)cc1Cl` registered a melting point of 215 to 216 °C.

In the case of `CC(=O)Nc1ccc(S(=O)(=O)Nc2cccc3[nH]ccc23)cc1`, the melting point was above 260 °C.

As to `CC(C)=CCn1ccnc1[N+](=O)[O-]`, the melting point was in the range of 48 to 49 °C.

`O=C(c1ccc(F)cc1)C1CCN(CCCn2c(=O)[nH]c3ccccc32)CC1` showed a melting point of 164 °C.

On to `Nc1ncc2ncn(CCC(CO)COC(=O)c3ccccc3)c2n1` (centres undefined), for which the melting point was 116 to 118 °C.

As for `CC=CC=CCOC(=O)C1=C(C)NC(C)=C(C(=O)OC(C)(C)C)C1c1cccc([N+](=O)[O-])c1` (centres undefined), the melting point lay within 152 to 154 °C.

`C=CCn1c(=O)n(CCCCO)c2nc(N)nc(Cl)c21`: the melting point fell in the range of 132 to 133 °C.

In the case of `N#Cc1ccc2c(c1)ncn2-c1cccc(I)c1`, the melting point is 177 to 179 °C.

Compound `COC(=O)c1cccc(/C=C/c2ccccc2)c1` returned a melting point of 108 to 109 °C.

Consider `CCCCCCCCCC(=O)c1ccc(O)c(C(=O)O)c1`, for which the melting point was 118 to 119 °C.

With `CSc1cc(C(C)=O)ccc1OCCCN1CCC(c2noc3cc(F)ccc23)CC1`, the melting point was 150 to 152 °C.

In the case of `NS(=O)(=O)c1ccc(NC(=O)Nc2ccccc2-c2ccccc2)cc1`, the melting point lay within 229 to 231 °C.

For `O=C(Nc1cc(C(=O)O)cc(C(=O)O)c1)Oc1ccccc1`, the melting point is above 300 °C.

Regarding `CCc1c(-c2ccc(O)cc2)c2cc(COCCN3CCCCC3)c3cccc1n32`, the melting point lay within 132 to 134 °C.

In turn, `CCOC(=O)c1ccncn1` registered a melting point of 36.8 °C.

On to `C=C1c2ccccc2C=Cn2c1nnc2S(C)=O` (centres undefined), for which the melting point lay within 140 to 142 °C.

For the compound `COC(=O)c1sc(C)c(C#N)c1N(C(=O)OC(C)(C)C)C(=O)OC(C)(C)C`, the melting point fell in the range of 97 to 102 °C.

The compound `CC(=O)OC[C@@H]1C=C[C@H](n2cnc3c(Cl)nc(N)nc32)C1` showed a melting point of 124 to 127 °C.

For `Cn1c([N+](=O)[O-])cnc1C1=NOC2CCCC12` (centres undefined), the melting point is 89.5 to 91.5 °C.

As to `CCC1OCC(O)CO1` (centres undefined), the melting point lay within 62 to 68.5 °C.

`Cc1ccc(-c2ccc(C(=O)Nc3ccc4nc(CN5CCCCC5)ccc4c3)cc2)cc1`: the melting point was 198 to 200 °C.

With `CC1Nc2ccc(-c3csc(C#N)c3)cc2C2(CCCC2)O1` (centres undefined), the melting point was 103 to 104 °C.

For `O=C1c2ccccc2C(=O)c2c1ccc(C(=O)O)c2[N+](=O)[O-]`, the melting point was in the range of 284 to 286 °C.

Compound `CCOc1cnc(C(C)C)nc1O` displayed a melting point of 154 °C.

Take `CCc1c(C(=O)C(N)=O)c2c(OCC(=O)OC)cc3c(c2n1Cc1ccccc1)CCCC3`: the melting point was in the range of 51 to 53 °C.

In turn, `O=C(O)C1c2ccccc2COc2cc(Br)ccc21` (centres undefined) returned a melting point of 217 to 218 °C.

In turn, `CCN1c2ncc(/C=C/c3ccncc3)cc2C(=O)N(C)c2ccc(Cl)nc21` displayed a melting point of 150 to 152 °C.

As to `Cc1[nH]cnc1CCCCNC(=N)N`, the melting point is 152 to 154 °C.
